Among the data in patent US6420427B1, “Aminobutyric acid derivatives” (Ono Pharmaceutical Co., Ltd., priority 1997, dated 2002) are IC50 values, retold here.

For orientation: IC50 means the concentration that gives 50% inhibition. A lower IC50 goes with greater potency in that assay.

What all share (format): biochemical
For test [1], the target named is T1, collagenase (Homo sapiens, UniProt P03956).
T1 construct: endogenous in cells; host or cells: human normal skin dermal fibroblasts (HNDF)
T1 sequence (P03956 100-469): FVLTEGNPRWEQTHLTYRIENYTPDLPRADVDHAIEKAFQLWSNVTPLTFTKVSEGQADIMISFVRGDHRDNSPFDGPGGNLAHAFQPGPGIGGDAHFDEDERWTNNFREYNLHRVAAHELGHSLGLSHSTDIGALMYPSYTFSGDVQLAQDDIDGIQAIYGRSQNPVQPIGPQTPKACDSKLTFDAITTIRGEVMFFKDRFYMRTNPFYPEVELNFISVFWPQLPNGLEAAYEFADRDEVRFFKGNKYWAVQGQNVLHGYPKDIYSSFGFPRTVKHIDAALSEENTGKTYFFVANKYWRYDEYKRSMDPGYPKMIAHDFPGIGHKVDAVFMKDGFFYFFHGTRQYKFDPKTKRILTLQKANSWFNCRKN
Briefly: Inhibitory activity against collagenase. To be noted: procollagenase from HNDF, trypsin-activated; thioester substrate 1.33 mM, 26° C., absorption at 324 nm. As to the method: (2) Inhibitory Activity Against Collagenase
The procollagenase (5 μl; in assay buffer (105 μl)) was purified from human normal skin dermal fibroblasts (HNDF). It was activated by the addition of 1 mg/ml Trypsin (45 μl) for 1 minute at 37° C. Trypsin was inactivated by addition of 5 mg/ml soybean trypsin inhibitor (SBTI; 50 μl).
A mixture of the synthetic substrate (Ac-Pro-Leu-Gly-[2-mercapto-4-methyl-pentanoyl]-Leu-Gly-OEt) (105 μl; a final concentration 1.33 mM) and a solution (20 μl) with or without various concentrations of the test compound was preincubated for 5 minutes at 26° C.
The solution of activated enzyme (75 μl/tube, 50 μl) was mixed with the mixture and the mixture was incubated for 10 minutes at 26° C.
Absorption at 324 nm was measured at 40 points over 10 minutes. Vmax value was determined as measured value in 30 points therein.

Test [2] deals with T2, human stromelysin (Homo sapiens, UniProt P08254).
T2 construct: purchased Yagai
Kind of test: Inhibitory activity against stromelysin. To be noted: APMA-activated, substrate NFF-3, pH 7.5, 37° C. As to the method:
(3) Inhibitory Activity Against Stromelysin ps [Method]
The mixture of human stromelysin (Yagai; 9 volume) and 10 mM p-aminophenylmercury acetate (1 volume) was activated for 20 hours at 37° C. A solution of the test compound in dimethylsulfoxide (10 μl) and 0.5 mM solution (10 μl) of 10 mM solution of the synthetic substrate NFF-3 (Mca-Arg-Pro-Lys-Pro-Val-Glu-Nva-Trp-Arg-Lys(DNP)-NH2., Nva: norvaline, Peptide Laboratory) in dimethylsulfoxide diluted by water were added to assay buffer (50 mM tris-HCl, 10 mM CaCl2, 0.05% Brij35, 0.02% NaN3 (pH 7.5)) (150 μl). Furthermore, assay buffer (30 μl) was added to the mixture. The mixture was incubated for 10 minutes at 37° C. The reaction was started by addition of a solution of the above activated stromelysin solution (50 μl). The enzyme activity was represented by increasing value of fluorescent intensity [Ex=325 nm (Ex)/393 nm (Em)] per 1 minute. Inhibitory activity was represented by inhibitory percentage (%) per enzyme activity without the test compound.

In test [3] the target is T3, gelatinase A (Homo sapiens, UniProt P08253).
T3 construct: endogenous in cells; host or cells: human normal skin dermal fibroblasts (HNDF)
T3 sequence (P08253 110-660): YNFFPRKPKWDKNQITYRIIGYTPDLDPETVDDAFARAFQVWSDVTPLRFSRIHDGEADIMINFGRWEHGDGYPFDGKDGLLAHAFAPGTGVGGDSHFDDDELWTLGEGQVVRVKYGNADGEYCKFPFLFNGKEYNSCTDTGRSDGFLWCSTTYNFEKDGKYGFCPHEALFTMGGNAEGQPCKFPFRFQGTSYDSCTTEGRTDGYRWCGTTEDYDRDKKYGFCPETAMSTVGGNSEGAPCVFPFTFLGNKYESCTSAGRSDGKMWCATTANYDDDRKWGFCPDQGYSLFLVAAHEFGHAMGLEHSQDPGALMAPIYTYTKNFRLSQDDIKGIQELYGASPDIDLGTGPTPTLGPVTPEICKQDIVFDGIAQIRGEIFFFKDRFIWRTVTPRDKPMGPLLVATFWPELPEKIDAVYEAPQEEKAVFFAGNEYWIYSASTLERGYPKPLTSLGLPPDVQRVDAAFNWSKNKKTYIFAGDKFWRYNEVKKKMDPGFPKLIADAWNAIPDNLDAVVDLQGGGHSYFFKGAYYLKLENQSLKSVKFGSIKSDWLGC
Kind of test: Inhibitory activity against gelatinase A. To be noted: progelatinase A from human normal skin dermal fibroblasts (HNDF), APMA-activated; fluorogenic substrate MOCAc-Pro-Leu-Gly-A2pr(Dnp)-Ala-Arg-NH2 13.5 μM, 37° C. As to the method: (1) Inhibitory Activity Against Gelatinase A
The progelatinase A (5 μl; in assay buffer (40 μl)) was purified from human normal skin dermal fibroblasts (HNDF). It was activated by the addition of 10 mM of p-aminophenylmercuric acetate (APMA) ([…]) for 1 hour at 37° C.
A mixture of the synthetic substrate (MOCAc-Pro-Leu-Gly-A2pr(Dnp)-Ala-Arg-NH2) (130 μl; a final concentration 13.5 μM) and a solution (20 μl) with or without various concentrations of the test compound was preincubated for 5 minutes at 37° C.
The solution of activated gelatinase A (50 μl/well) was mixed with the mixture and the mixture was incubated for 15 minutes at 37° C. The enzyme reaction was started. The enzyme activity was represented by increasing value of fluorescent intensity [Ex=325 nm (Ex)/393 nm (Em)] per 1 minute. Inhibitory activity was represented by inhibitory percentage (%) per enzyme activity without the test compound. For example, IC50 of the compound as Example 71 is 0.50 nM.

T2 sequence (P08254 100-477): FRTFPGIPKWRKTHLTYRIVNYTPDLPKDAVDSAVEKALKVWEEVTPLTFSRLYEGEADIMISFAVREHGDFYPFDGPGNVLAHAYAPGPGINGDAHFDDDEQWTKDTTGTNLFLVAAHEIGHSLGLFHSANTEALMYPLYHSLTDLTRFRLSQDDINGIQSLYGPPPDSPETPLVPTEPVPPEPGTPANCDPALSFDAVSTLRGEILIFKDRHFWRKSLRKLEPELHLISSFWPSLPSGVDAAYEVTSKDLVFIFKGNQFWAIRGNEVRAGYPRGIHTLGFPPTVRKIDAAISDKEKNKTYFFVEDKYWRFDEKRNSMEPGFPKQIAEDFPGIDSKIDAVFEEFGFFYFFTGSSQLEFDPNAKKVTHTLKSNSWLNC

With `CCOCOC[C@H](C[C@H](C)C(=O)NO)NC(=O)c1ccc(Oc2ccccc2)cc1` [Example 71, N-Hydroxy-2(S)-methyl-5-ethoxymethoxy-4(S)-[N-(4-phenoxyphenylcarbonyl)-amino]pentanamide], the IC50 came out at 2500 nM in test [1], 26 nM in test [2] and 0.5 nM in test [3].
